These are literature values, as cited in US7547776B1, “Process for the production of fludarabine-phosphate lithium, sodium, potassium, calcium and magnesium salts and purification process for the production of fludarabine-phosphate and fludarabine-phosphate with a purity of at least 99.5%” (Bayer Schering Pharma Aktiengesellschaft, priority 1997, dated 2009).

For this series the following is noted: in water at approximately 75° C. (recrystallization).

On to `Nc1nc(F)nc2c1ncn2[C@@H]1O[C@H](COP(=O)(O)O)[C@@H](O)[C@@H]1O` [fludarabine-phosphate, 9-β-D-arabinofuranosyl-2-fluoroadenine-5′-O-dihydrogenphosphate], for which the “thermal stability in water” value is on record as “thermally unstable”.
